# Reference: the NIST ThermoML archive (doi:10.1021/je200637v)
# ± gives the expanded uncertainty stated by the source.
# Assay: activity coefficient (dimensionless); of the first substance listed, at infinite dilution; xn = mol fraction of the nth substance listed
# Conditions: Liquid, Chromatography, x1 = 0
compound,measurement,setting,value
C#CCCCC [1-hexyne] + CCCCCCCC[N+](C)(C)C.O=S(=O)([N-]S(=O)(=O)C(F)(F)F)C(F)(F)F,activity coefficient,322.85 K,1.92 ± 0.08
same,activity coefficient,332.65 K,1.89 ± 0.08
same,activity coefficient,343.15 K,1.82 ± 0.08
C#CCCCC [1-hexyne] + CCCCCCCC[N+](CCCCCCCC)(CCCCCCCC)CCCCCCCC.O=S(=O)([N-]S(=O)(=O)C(F)(F)F)C(F)(F)F,activity coefficient,322.85 K,0.75 ± 0.03
same,activity coefficient,332.65 K,0.76 ± 0.03
same,activity coefficient,343.15 K,0.76 ± 0.03
C#CCCCC [1-hexyne] + CCCC[N+](C)(CCCC)CCCC.O=S(=O)([N-]S(=O)(=O)C(F)(F)F)C(F)(F)F,activity coefficient,322.85 K,2.12 ± 0.1
same,activity coefficient,332.65 K,2.24 ± 0.1
same,activity coefficient,343.15 K,2.2 ± 0.1
CCC[N+](=O)[O-] [1-nitropropane] + CCCCCCCCCC[N+](C)(C)C.O=S(=O)([N-]S(=O)(=O)C(F)(F)F)C(F)(F)F,activity coefficient,322.85 K,0.59 ± 0.03
same,activity coefficient,332.65 K,0.59 ± 0.03
same,activity coefficient,343.15 K,0.57 ± 0.03
CCC[N+](=O)[O-] [1-nitropropane] + CCCCCCCC[N+](C)(C)C.O=S(=O)([N-]S(=O)(=O)C(F)(F)F)C(F)(F)F,activity coefficient,322.85 K,0.62 ± 0.03
same,activity coefficient,332.65 K,0.61 ± 0.03
same,activity coefficient,343.15 K,0.6 ± 0.03
CCC[N+](=O)[O-] [1-nitropropane] + CCCCCCCC[N+](CCCCCCCC)(CCCCCCCC)CCCCCCCC.O=S(=O)([N-]S(=O)(=O)C(F)(F)F)C(F)(F)F,activity coefficient,322.85 K,0.48 ± 0.03
same,activity coefficient,332.65 K,0.48 ± 0.03
same,activity coefficient,343.15 K,0.47 ± 0.03
CCC[N+](=O)[O-] [1-nitropropane] + CCCC[N+](C)(CCCC)CCCC.O=S(=O)([N-]S(=O)(=O)C(F)(F)F)C(F)(F)F,activity coefficient,322.85 K,0.68 ± 0.03
same,activity coefficient,332.65 K,0.7 ± 0.03
same,activity coefficient,343.15 K,0.68 ± 0.03
"OCC(F)(F)F [2,2,2-trifluoroethanol] + CCCCCCCCCC[N+](C)(C)C.O=S(=O)([N-]S(=O)(=O)C(F)(F)F)C(F)(F)F",activity coefficient,322.85 K,0.46 ± 0.03
same,activity coefficient,332.65 K,0.44 ± 0.03
same,activity coefficient,343.15 K,0.41 ± 0.03
"OCC(F)(F)F [2,2,2-trifluoroethanol] + CCCCCCCC[N+](C)(C)C.O=S(=O)([N-]S(=O)(=O)C(F)(F)F)C(F)(F)F",activity coefficient,322.85 K,0.4 ± 0.03
same,activity coefficient,332.65 K,0.38 ± 0.03
same,activity coefficient,343.15 K,0.35 ± 0.04
"OCC(F)(F)F [2,2,2-trifluoroethanol] + CCCCCCCC[N+](CCCCCCCC)(CCCCCCCC)CCCCCCCC.O=S(=O)([N-]S(=O)(=O)C(F)(F)F)C(F)(F)F",activity coefficient,322.85 K,0.48 ± 0.03
same,activity coefficient,332.65 K,0.37 ± 0.03
same,activity coefficient,343.15 K,0.36 ± 0.04
"OCC(F)(F)F [2,2,2-trifluoroethanol] + CCCC[N+](C)(CCCC)CCCC.O=S(=O)([N-]S(=O)(=O)C(F)(F)F)C(F)(F)F",activity coefficient,322.85 K,0.5 ± 0.03
same,activity coefficient,332.65 K,0.48 ± 0.03
same,activity coefficient,343.15 K,0.45 ± 0.03
"CC(C)CC(C)(C)C [2,2,4-trimethylpentane] + CCCCCCCCCC[N+](C)(C)C.O=S(=O)([N-]S(=O)(=O)C(F)(F)F)C(F)(F)F",activity coefficient,322.85 K,5.41 ± 0.25
same,activity coefficient,332.65 K,5.29 ± 0.24
same,activity coefficient,343.15 K,4.92 ± 0.22
"CC(C)CC(C)(C)C [2,2,4-trimethylpentane] + CCCCCCCC[N+](C)(C)C.O=S(=O)([N-]S(=O)(=O)C(F)(F)F)C(F)(F)F",activity coefficient,322.85 K,8.1 ± 0.37
same,activity coefficient,332.65 K,7.66 ± 0.35
same,activity coefficient,343.15 K,7.14 ± 0.33
"CC(C)CC(C)(C)C [2,2,4-trimethylpentane] + CCCCCCCC[N+](CCCCCCCC)(CCCCCCCC)CCCCCCCC.O=S(=O)([N-]S(=O)(=O)C(F)(F)F)C(F)(F)F",activity coefficient,322.85 K,1.52 ± 0.06
same,activity coefficient,332.65 K,1.51 ± 0.06
same,activity coefficient,343.15 K,1.5 ± 0.06
"CC(C)CC(C)(C)C [2,2,4-trimethylpentane] + CCCC[N+](C)(CCCC)CCCC.O=S(=O)([N-]S(=O)(=O)C(F)(F)F)C(F)(F)F",activity coefficient,322.85 K,8.87 ± 0.41
same,activity coefficient,332.65 K,8.91 ± 0.41
same,activity coefficient,343.15 K,8.42 ± 0.39
CC(C)CO [2-methyl-1-propanol] + CCCCCCCCCC[N+](C)(C)C.O=S(=O)([N-]S(=O)(=O)C(F)(F)F)C(F)(F)F,activity coefficient,322.85 K,1.59 ± 0.06
same,activity coefficient,332.65 K,1.47 ± 0.06
same,activity coefficient,343.15 K,1.31 ± 0.05
CC(C)CO [2-methyl-1-propanol] + CCCCCCCC[N+](C)(C)C.O=S(=O)([N-]S(=O)(=O)C(F)(F)F)C(F)(F)F,activity coefficient,322.85 K,1.87 ± 0.08
same,activity coefficient,332.65 K,1.7 ± 0.07
same,activity coefficient,343.15 K,1.51 ± 0.06
CC(C)CO [2-methyl-1-propanol] + CCCCCCCC[N+](CCCCCCCC)(CCCCCCCC)CCCCCCCC.O=S(=O)([N-]S(=O)(=O)C(F)(F)F)C(F)(F)F,activity coefficient,322.85 K,1.17 ± 0.04
same,activity coefficient,332.65 K,1.09 ± 0.03
same,activity coefficient,343.15 K,1 ± 0.03
CC(C)CO [2-methyl-1-propanol] + CCCC[N+](C)(CCCC)CCCC.O=S(=O)([N-]S(=O)(=O)C(F)(F)F)C(F)(F)F,activity coefficient,322.85 K,1.97 ± 0.09
same,activity coefficient,332.65 K,1.82 ± 0.08
same,activity coefficient,343.15 K,1.64 ± 0.07
CCC(C)CC [3-methylpentane] + CCCCCCCCCC[N+](C)(C)C.O=S(=O)([N-]S(=O)(=O)C(F)(F)F)C(F)(F)F,activity coefficient,322.85 K,3.88 ± 0.18
same,activity coefficient,332.65 K,3.78 ± 0.17
same,activity coefficient,343.15 K,3.62 ± 0.16
CCC(C)CC [3-methylpentane] + CCCCCCCC[N+](C)(C)C.O=S(=O)([N-]S(=O)(=O)C(F)(F)F)C(F)(F)F,activity coefficient,322.85 K,5.62 ± 0.26
same,activity coefficient,332.65 K,5.24 ± 0.24
same,activity coefficient,343.15 K,4.87 ± 0.22
